Measurements: patent US4900538A (Suntory Limited, priority 1982, dated 1990)
Values joined by “and” are separate entries in the source; they are usually repeats but may differ in a detail not shown here. Equal values may be shown once. Read-outs that look alike come from different tables or passages of the source.

Key:
[1] = system: Escherichia coli K 12 envA uvr B (λ), GY 5027; assay type: cell-based; conditions: for Inactivation of mutagenicity (phage induction activity) of adriamycin, dose-response: absence of S9 mix, molar ratios to adriamycin 1:1 to 30:1 (FIG. 12)
Description: Inductest III (P. Morean, A. Bailone and R. Devoret: Proc. Natl. Acad. Sci. U.S.A., Vol. 73, No. 10, 3700-3704, '76). This method is a test for mutagenicity using prophage λ induction as an index. The strains used in this method were Escherichia coli K 12 envA uvr B (λ), GY 5027 and as λ indicator GY 4015 (Amp R).
This method uses phage induction activity as an index.
Potassium sulfite was used as a sulfite compound and potassium pyrosulfite which produces 2 equivalents of hydrogensulfite ion when dissolved in water was used as acid sulfite.
Dithionite produces two equivalents of hydrogensulfite ions when dissolved in water.
The molar ratio of sodium dithionite to daunomycin was 15:1. In FIGS. 13 and 14 the symbol indicates daunomycin alone and the symbol indicates daunomycin plus sodium dithionite.
Sodium sulfite was used as a sulfite at a molar ratio of sodium sulfite to daunomycin of 30:1.

male CD-1 (ICR) mice = test: Acute toxicity in mice (survival days)
Experimental: Male CD-1 (ICR) mice (12 weeks old) were used as test animals. The temperature in the animal room was maintained at 23° C. (±3° C.) and relative humidity was kept at 30-70%. Artificial lighting was carried out by illumination and darkening at successive intervals of 12 hours.
The test substances were dissolved in distilled water and intraperitoneally administered to the animals at a dose of 10 ml/kg.
The above t-test was carried out as follows.

L1210 cells = test: In vivo carcinostatic activity against transplanted L1210 cells (ILS, survivors); conditions: i.p.
Experimental: Male BDF1 mice (57BL/6XDBA/2) weighing 19-20 g were used in this experiment. Feed (CA-1, Nihon Kurea Kabushiki Kaisha, Meguro-ku, Tokyo, Japan) and water were freely taken. 1×10^5 L 1210 cells were intraperitoneally transplanted to a mouse in each group of 6 mice. Test substances were intraperitoneally administered to mice 24 hours after i.p. injection of L1210 cells and thereafter one time each day for 5 days. Survival days of all of the mice were recorded and carcinostatic effects of the test compounds were measured by using index of life spread (ILS %) to the control group.

DNA = conditions: cited from earlier work
[2] = system: Salmonella typhimurium TA 98; test: Ames test (Preincubation Method): mutagenicity and its inactivation by sulfite compounds; conditions: FIGS. 1, 6 and 7 (also FIGS. 3 and 4, Inductest III)
Experimental: This method is based on the Ames test (B. N. Ames, J. Mac Gann and E. Yamasaki: Mutation Research, Vol. 31, 347-364, '75). […] The strain used in this method was histidine requisite Salmonella typhimurium TA 100 and TA 98 (hereinafter referred to as St TA 100 and St TA 98).
At the same time, predetermined amounts of sodium sulfite, sodium hydrogensulfite (sodium acid sulfite), sodium pyrosulfite, sodium dithionite or sulphurous anhydride were dissolved in aseptic distilled water.
To 100 μl of each of the samples prepared in the above (2), 500 μl of 100 mM sodium phosphate buffer (pH 7.4) and 100 μl of a culture of St TA 100 or St TA 98 were added. Each mixture was shaken for 20 minutes at 37° C., added to 2.5 ml of a soft agar solution and spread on 0.1% glucose agar plate which had been supplemented with 0.1 μM per plate of histidine in order to create several divisions. After incubation at 37° C. for 48 hours, the number of colonies on the plate was counted as revertants. This method uses nutrient requisiteness of the above strains as an index.

[3] = system: strains used (Salmonella typhimurium, Escherichia coli); test: Growth / survival of the strains used in the mutagenicity tests; assay type: cell-based; conditions: explains apparent reduction of mutagenicity at high levels
[4] = Japanese Patent application No. 144272/81; cited from earlier work

SMILES: O=S([O-])S(=O)[O-].[Na+].[Na+] [sodium dithionite]
- Inactivation of mutagenicity of daunomycin (phage induction) ([1]; molar ratio dithionite to daunomycin 15:1, independently of S9 mix (FIGS. 13 and 14)): completely inactivated

SMILES: O=S([O-])O.[Na+] [sodium hydrogensulfite]
- Reduction of toxicity of adriamycin (t-test of survival days) (male CD-1 (ICR) mice; experiment (1): adriamycin 20 mg/kg for 3 days, sodium hydrogensulfite 53.8 mg/kg (FIG. 10)): significantly reduced toxicity at a confidence level of 90%

SMILES: O=S([O-])[O-].[K+].[K+] [sulfite, potassium sulfite]
- Inactivation of mutagenicity (phage induction activity) of adriamycin, dose-response [1]: the more remarkably the mutagenicity of adriamycin was inactivated

SMILES: COc1cccc2c1C(=O)c1c(O)c3c(c(O)c1C2=O)C[C@@](O)(C(=O)CO)C[C@@H]3O[C@H]1C[C@H](N)[C@H](O)[C@H](C)O1 [adriamycin]
- Survival days, individual mouse (male CD-1 (ICR) mice; experiment (1): adriamycin 20 mg/kg i.p. daily for 3 days, no hydrogensulfite, mice No. 1-12 in order): 0 days (8×) and 1 days (4×)
- Survival days, mean (x) (male CD-1 (ICR) mice; experiment (1): adriamycin 20 mg/kg i.p. daily for 3 days, no hydrogensulfite, n=12, s 0.5778): 0.3333 days
- Survival days, individual mouse (male CD-1 (ICR) mice; experiment (2): adriamycin alone 20 mg/kg i.p., mice No. 1-11 in order, listed as ADM): 14 days and 7 days and 6 days and 5 days and 4 days
- Survival days, mean (x) (male CD-1 (ICR) mice; experiment (2): adriamycin alone 20 mg/kg i.p., n=11, s 2.747): 7.545 days
- Survivors (on Day 60) (L1210 cells; adriamycin 1 mg/kg/day × 5, sodium hydrogensulfite 0): 1 and 1/6
- Survivors (on Day 60) (L1210 cells; adriamycin 3 mg/kg/day × 5, sodium hydrogensulfite 0): zero and 0/6
- Base pairs of DNA reacting per one molecule (intercalation) (DNA): 3 base pairs
- Apparent change of mutagenicity at high levels of the antibiotic per se [2]: appear to be reduced at high levels

SMILES: O=S(O)O [hydrogensulfite ion]
- Hydrogensulfite ion in molar concentration necessary for complete inactivation of mutagenicity of adriamycin ([1]; absence of S9 mix (FIG. 5)): at least ten

SMILES: COc1cccc2c1C(=O)c1c(O)c3c(c(O)c1C2=O)C[C@@](O)(C(C)=O)C[C@@H]3O[C@H]1C[C@H](N)[C@H](O)[C@H](C)O1 [daunomycin]
- Base pairs of DNA reacting per one molecule (intercalation) (DNA): 3 base pairs
- Apparent change of mutagenicity at high levels of the antibiotic per se [2]: appear to be reduced at high levels
- Cellular toxicity [3]: have cellular toxicity

SMILES: O=S([O-])S(=O)(=O)[O-].[K+].[K+] [acid sulfite, potassium pyrosulfite]
- Inactivation of mutagenicity (phage induction activity) of adriamycin, dose-response [1]: the more remarkably the mutagenicity of adriamycin was inactivated

SMILES: O=S(O)O [sulfite ion]
- Inactivation of mutagenicities of coffee, tobacco tar and spirits [4]: inactivates mutagenicities

SMILES: O=S([O-])[O-].[Na+].[Na+] [sodium sulfite]
- Inactivation of mutagenicity of daunomycin (phage induction) ([1]; molar ratio sodium sulfite to daunomycin 30:1, absence and presence of S9 mix (FIGS. 15 and 16)): completely inactivated
